Tested on: MV-4-11 cells
Test: Gene expression microarray analysis (Affymetrix PrimeView) and GSEA
Type: cell-based, human
Set-up: RFU PODN (11730768_x_at) / Fold change /veh PODN (11730768_x_at) / RFU LINC00158 (11744669_a_at) / Fold change /veh LINC00158 (11744669_a_at) / RFU DUSP10 (11751237_a_at) / Fold change /veh DUSP10 (11751237_a_at) / RFU ID3 (11757404_x_at) / Fold change /veh ID3 (11757404_x_at) / RFU PLEKHG5 (11737974_s_at) / Fold change /veh PLEKHG5 (11737974_s_at) / RFU LRRC4B (11730491_at) / Fold change /veh LRRC4B (11730491_at) / RFU GIMAP4 (11747438_a_at) / Fold change /veh GIMAP4 (11747438_a_at) / RFU KRT8 (11758183_x_at) / Fold change /veh KRT8 (11758183_x_at) / RFU CNN1 (11734310_a_at) / Fold change /veh CNN1 (11734310_a_at) / RFU VPS37D (11726825_at) / Fold change /veh VPS37D (11726825_at) / RFU C10orf10 (11716522_x_at) / Fold change /veh C10orf10 (11716522_x_at) / RFU KIR2DL2 /// KIR2DL4 /// KIR2DL5A /// KIR2DL5B /// KIR2DS1 /// KIR2DS2 /// KIR2DS3 /// KIR2DS4 /// KIR3DL3 /// KIR3DL3 /// KIR3DS1 (11738374_at) / Fold change /veh KIR2DL2 /// KIR2DL4 /// KIR2DL5A /// KIR2DL5B /// KIR2DS1 /// KIR2DS2 /// KIR2DS3 /// KIR2DS4 /// KIR3DL3 /// KIR3DL3 /// KIR3DS1 (11738374_at) / RFU C1QL1 (11718748_at) / Fold change /veh C1QL1 (11718748_at) / RFU TMPRSS4 (11747572_a_at) / Fold change /veh TMPRSS4 (11747572_a_at) / RFU HAMP (11756126_x_at) / Fold change /veh HAMP (11756126_x_at) / RFU RNFT2 (11725882_a_at) / Fold change /veh RNFT2 (11725882_a_at) / RFU NR4A2 (11747474_a_at) / Fold change /veh NR4A2 (11747474_a_at) / RFU ABCC12 (11746883_a_at) / Fold change /veh ABCC12 (11746883_a_at) / RFU TMEM136 (11760407_x_at) / Fold change /veh TMEM136 (11760407_x_at) / RFU CLDN22 /// WWC2 (11732394_at) / Fold change /veh CLDN22 /// WWC2 (11732394_at) / RFU HLA-DPB1 (11760878_x_at) / Fold change /veh HLA-DPB1 (11760878_x_at) / RFU SPINT1 (11716480_a_at) / Fold change /veh SPINT1 (11716480_a_at) / RFU GAP43 (11754022_s_at) / Fold change /veh GAP43 (11754022_s_at) / RFU A4GNT (11735810_at) / Fold change /veh A4GNT (11735810_at) / RFU PRB3 (11715151_x_at) / Fold change /veh PRB3 (11715151_x_at) / RFU TUBB4B (11761932_at) / Fold change /veh TUBB4B (11761932_at) / RFU CAPN14 (11732068_a_at) / Fold change /veh CAPN14 (11732068_a_at) / RFU TMCC2 (11721928_a_at) / Fold change /veh TMCC2 (11721928_a_at) / RFU IRGQ (11745062_a_at) / Fold change /veh IRGQ (11745062_a_at) / RFU FAM174B (11720279_a_at) / Fold change /veh FAM174B (11720279_a_at) / RFU TMPRSS4 (11748680_a_at) / Fold change /veh TMPRSS4 (11748680_a_at) / RFU FAM212B (11763350_a_at) / Fold change /veh FAM212B (11763350_a_at) / RFU PLEKHG5 (11743358_a_at) / Fold change /veh PLEKHG5 (11743358_a_at) / RFU ZSCAN30 (11745921_a_at) / Fold change /veh ZSCAN30 (11745921_a_at) / RFU CMKLR1 (11741424_a_at) / Fold change /veh CMKLR1 (11741424_a_at) / RFU LOC101060620 /// MAPK8IP1 (11723275_at) / Fold change /veh LOC101060620 /// MAPK8IP1 (11723275_at) / RFU SPTSSB (11747773_x_at) / Fold change /veh SPTSSB (11747773_x_at) / RFU PRSS12 (11739890_at) / Fold change /veh PRSS12 (11739890_at) / RFU BIN1 (11741810_x_at) / Fold change /veh BIN1 (11741810_x_at) / RFU WNT11 (11732464_a_at) / Fold change /veh WNT11 (11732464_a_at) / RFU C10orf10 (11716521_a_at) / Fold change /veh C10orf10 (11716521_a_at) / RFU C5orf56 (11738089_at) / Fold change /veh C5orf56 (11738089_at) / RFU CYB561 (11721691_x_at) / Fold change /veh CYB561 (11721691_x_at) / RFU ANKRD19P (11752326_a_at) / Fold change /veh ANKRD19P (11752326_a_at) / RFU OR2T12 /// OR2T33 /// OR2T8 (11738714_s_at) / Fold change /veh OR2T12 /// OR2T33 /// OR2T8 (11738714_s_at) / RFU VCAN (11748164_a_at) / Fold change /veh VCAN (11748164_a_at) / RFU JSRP1 (11732532_at) / Fold change /veh JSRP1 (11732532_at) / RFU KRTAP10-11 (11738290_x_at) / Fold change /veh KRTAP10-11 (11738290_x_at) / RFU MYO3A (11730013_a_at) / Fold change /veh MYO3A (11730013_a_at) / RFU EBF3 (11725865_a_at) / Fold change /veh EBF3 (11725865_a_at) / RFU CAMK2N1 (11719241_x_at) / Fold change /veh CAMK2N1 (11719241_x_at) / RFU C5orf56 (11738088_a_at) / Fold change /veh C5orf56 (11738088_a_at) / RFU OLFML3 (11715873_a_at) / Fold change /veh OLFML3 (11715873_a_at) / RFU LOC100653217 /// NTM (11731650_a_at) / Fold change /veh LOC100653217 /// NTM (11731650_a_at) / RFU MAPK11 (11762145_a_at) / Fold change /veh MAPK11 (11762145_a_at) / RFU FIZ1 (11724087_x_at) / Fold change /veh FIZ1 (11724087_x_at) / RFU OASL (11726364_x_at) / Fold change /veh OASL (11726364_x_at) / RFU SOX15 (11748057_x_at) / Fold change /veh SOX15 (11748057_x_at) / RFU CD79A (11719716_a_at) / Fold change /veh CD79A (11719716_a_at) / RFU HIST1H1D (11736915_at) / Fold change /veh HIST1H1D (11736915_at) / RFU CASKIN2 (11723855_a_at) / Fold change /veh CASKIN2 (11723855_a_at) / RFU LOC730098 (11760151_x_at) / Fold change /veh LOC730098 (11760151_x_at) / RFU OR4N2 (11742367_at) / Fold change /veh OR4N2 (11742367_at) / RFU PRRT2 (11749266_a_at) / Fold change /veh PRRT2 (11749266_a_at) / RFU SNX32 (11753110_a_at) / Fold change /veh SNX32 (11753110_a_at) / RFU CDHR5 (11726645_a_at) / Fold change /veh CDHR5 (11726645_a_at) / RFU RCAN1 (11760418_a_at) / Fold change /veh RCAN1 (11760418_a_at) / RFU FAM167A (11723789_a_at) / Fold change /veh FAM167A (11723789_a_at) / RFU FAM26E (11764081_at) / Fold change /veh FAM26E (11764081_at) / RFU ISYNA1 (11749810_s_at) / Fold change /veh ISYNA1 (11749810_s_at) / RFU ACY1 (11761880_at) / Fold change /veh ACY1 (11761880_at) / RFU 11764098_at / Fold change /veh 11764098_at / RFU SAMD14 (11745864_x_at) / Fold change /veh SAMD14 (11745864_x_at) / RFU NPB (11741838_a_at) / Fold change /veh NPB (11741838_a_at) / RFU TMPRSS6 (11731388_a_at) / Fold change /veh TMPRSS6 (11731388_a_at) / RFU KRTAP10-2 (11738614_at) / Fold change /veh KRTAP10-2 (11738614_at) / RFU ARHGAP8 /// PRR5-ARHGAP8 (11727945_x_at) / Fold change /veh ARHGAP8 /// PRR5-ARHGAP8 (11727945_x_at) / RFU KRTAP5-7 /// NADSYN1 (11734609_at) / Fold change /veh KRTAP5-7 /// NADSYN1 (11734609_at) / RFU RASL12 (11751679_a_at) / Fold change /veh RASL12 (11751679_a_at) / RFU CDKN2B (11736163_a_at) / Fold change /veh CDKN2B (11736163_a_at) / RFU PRF1 (11729649_at) / Fold change /veh PRF1 (11729649_at) / RFU, ZNF638 /// ZNF638-IT1 / Fold change vs veh, ZNF638 /// ZNF638-IT1 / RFU, PANK3 / Fold change vs veh, PANK3 / RFU, SH3YL1 / Fold change vs veh, SH3YL1 / RFU, ZEB2 / Fold change vs veh, ZEB2 / RFU, NRIP1 / Fold change vs veh, NRIP1 / RFU, PTTG1IP / Fold change vs veh, PTTG1IP / RFU, CAPN2 / Fold change vs veh, CAPN2 / RFU, MED14 / Fold change vs veh, MED14 / RFU, SNORA58 / Fold change vs veh, SNORA58 / RFU, C1orf63 / Fold change vs veh, C1orf63 / RFU, LRRFIP1 / Fold change vs veh, LRRFIP1 / RFU, NDUFAF7 / Fold change vs veh, NDUFAF7 / RFU, SLC12A2 / Fold change vs veh, SLC12A2 / RFU, IBTK / Fold change vs veh, IBTK / RFU, ESF1 / Fold change vs veh, ESF1 / Fold change vs veh, TMEM50B / RFU, TAOK1 / Fold change vs veh, TAOK1 / RFU, ACBD3 / Fold change vs veh, ACBD3 / RFU, TMA16 / Fold change vs veh, TMA16 / RFU, RWDD3 / Fold change vs veh, RWDD3 / RFU, BCAT1 / Fold change vs veh, BCAT1 / RFU, EDEM3 / Fold change vs veh, EDEM3 / RFU, TMEM33 / Fold change vs veh, TMEM33 / RFU, WDR75 / Fold change vs veh, WDR75 / RFU, AHCTF1 / Fold change vs veh, AHCTF1 / RFU, TFRC / Fold change vs veh, TFRC / RFU, ZDHHC17 / Fold change vs veh, ZDHHC17 / RFU, NOM1 / Fold change vs veh, NOM1 / RFU, ARL8B / Fold change vs veh, ARL8B / RFU, ZBTB11 / Fold change vs veh, ZBTB11 / RFU, TAMM41 / Fold change vs veh, TAMM41 / RFU, KIAA1704 /// LOC100996395 / Fold change vs veh, KIAA1704 /// LOC100996395 / RFU, ING1 / Fold change vs veh, ING1 / RFU, TRMT61B / Fold change vs veh, TRMT61B / RFU, FUBP3 / Fold change vs veh, FUBP3 / RFU, TP53 / Fold change vs veh, TP53 / RFU, TNKS2 / Fold change vs veh, TNKS2 / RFU, ZFP14 / Fold change vs veh, ZFP14 / RFU, ACTR2 / Fold change vs veh, ACTR2 / RFU, PPP3R1 / Fold change vs veh, PPP3R1 / RFU, PIK3R1 / Fold change vs veh, PIK3R1 / RFU, HNRNPA1 / Fold change vs veh, HNRNPA1 / RFU, RNF170 / Fold change vs veh, RNF170 / RFU, ZNF28 / Fold change vs veh, ZNF28 / RFU, RNGTT / Fold change vs veh, RNGTT / RFU, OGT / Fold change vs veh, OGT / RFU, BRD1 / Fold change vs veh, BRD1 / RFU, MARS / Fold change vs veh, MARS / RFU, ZNF655 / Fold change vs veh, ZNF655 / RFU, FAHD1 / Fold change vs veh, FAHD1 / RFU, BDP1 / Fold change vs veh, BDP1 / RFU, LRRCC1 / Fold change vs veh, LRRCC1 / RFU, ARID1A / Fold change vs veh, ARID1A / RFU, ZNF146 / Fold change vs veh, ZNF146 / RFU, ZNF330 / Fold change vs veh, ZNF330 / RFU, GPN3 / Fold change vs veh, GPN3 / RFU, C9orf123 / Fold change vs veh, C9orf123 / RFU, N4BP2L2 / Fold change vs veh, N4BP2L2 / RFU, ARFIP1 / Fold change vs veh, ARFIP1 / RFU, FAM179B / Fold change vs veh, FAM179B / RFU, BCL10 / Fold change vs veh, BCL10 / RFU, UHRF1BP1L / Fold change vs veh, UHRF1BP1L / RFU, BET1 / Fold change vs veh, BET1 / RFU, CNOT2 / Fold change vs veh, CNOT2 / RFU, ZNF268 / Fold change vs veh, ZNF268 / Fold change vs veh, ZNF507 / RFU, DGCR2 / Fold change vs veh, DGCR2 / RFU, WDSUB1 / Fold change vs veh, WDSUB1 / Fold change vs veh, HSP90B1 /// MIR3652 / RFU, ADSS / Fold change vs veh, ADSS / RFU, GK / Fold change vs veh, GK / RFU, ZNF148 / Fold change vs veh, ZNF148 / RFU, TAF9 / Fold change vs veh, TAF9 / RFU, SLC1A5 / Fold change vs veh, SLC1A5 / RFU, SLMO2 / Fold change vs veh, SLMO2 / RFU, ABCC4 / Fold change vs veh, ABCC4 / RFU, LOC101060439 /// RAP1B / Fold change vs veh, LOC101060439 /// RAP1B / RFU, RFX7 / Fold change vs veh, RFX7 / RFU, GTPBP10 / Fold change vs veh, GTPBP10 / RFU, CNEP1R1 / Fold change vs veh, CNEP1R1 / RFU, BIVM-ERCC5 /// ERCC5 / Fold change vs veh, BIVM-ERCC5 /// ERCC5 / RFU, ILF3 / Fold change vs veh, ILF3 / RFU 11762660_at / Fold change /veh 11762660_at / RFU VCAN (11757783_s_at) / Fold change /veh VCAN (11757783_s_at) / RFU DDX43 (11728927_at) / Fold change /veh DDX43 (11728927_at) / RFU KRT8 (11758188_x_at) / Fold change /veh KRT8 (11758188_x_at) / RFU NKD1 (11759106_at) / Fold change /veh NKD1 (11759106_at) / RFU SRD5A1 (11742802_a_at) / Fold change /veh SRD5A1 (11742802_a_at) / RFU TPSAB1 /// TPSB2 (11721975_s_at) / Fold change /veh TPSAB1 /// TPSB2 (11721975_s_at) / RFU GSTM3 (11746129_a_at) / Fold change /veh GSTM3 (11746129_a_at) / RFU IL23R (11737362_x_at) / Fold change /veh IL23R (11737362_x_at) / RFU TMEM51 (11727254_a_at) / Fold change /veh TMEM51 (11727254_a_at) / RFU PIWIL2 (11732686_x_at) / Fold change /veh PIWIL2 (11732686_x_at) / RFU ORM1 (11744905_x_at) / Fold change /veh ORM1 (11744905_x_at) / RFU CCDC152 (11743942_at) / Fold change /veh CCDC152 (11743942_at) / RFU ECM1 (11717891_a_at) / Fold change /veh ECM1 (11717891_a_at) / RFU IL23R (11748794_a_at) / Fold change /veh IL23R (11748794_a_at) / RFU TNFAIP8L3 (11732012_x_at) / Fold change /veh TNFAIP8L3 (11732012_x_at) / RFU MBOAT4 (11741988_at) / Fold change /veh MBOAT4 (11741988_at) / RFU 11764193_at / Fold change /veh 11764193_at / RFU TMEM53 (11763286_at) / Fold change /veh TMEM53 (11763286_at) / RFU MAGEB2 (11727129_at) / Fold change /veh MAGEB2 (11727129_at) / RFU TMEM200A (11744735_a_at) / Fold change /veh TMEM200A (11744735_a_at) / RFU CCDC152 (11751479_a_at) / Fold change /veh CCDC152 (11751479_a_at) / RFU FAM211A (11726209_a_at) / Fold change /veh FAM211A (11726209_a_at) / RFU RGS16 (11746705_a_at) / Fold change /veh RGS16 (11746705_a_at) / RFU VCAN (11755009_s_at) / Fold change /veh VCAN (11755009_s_at) / RFU RHOB (11743442_s_at) / Fold change /veh RHOB (11743442_s_at) / RFU RGS16 (11720943_a_at) / Fold change /veh RGS16 (11720943_a_at) / RFU RGS16 (11720944_at) / Fold change /veh RGS16 (11720944_at) / RFU, VPS4B / Fold change vs veh, VPS4B / RFU, CREB1 / Fold change vs veh, CREB1 / RFU, DNAJC13 / Fold change vs veh, DNAJC13 / RFU, GNAQ / Fold change vs veh, GNAQ / RFU, CDK5R1 / Fold change vs veh, CDK5R1 / RFU, ZRANB3 / Fold change vs veh, ZRANB3 / RFU, CUL4A / Fold change vs veh, CUL4A / RFU, CCNY / Fold change vs veh, CCNY / RFU, UFL1 / Fold change vs veh, UFL1 / RFU, COG3 / Fold change vs veh, COG3 / RFU, DIAPH2 / Fold change vs veh, DIAPH2 / RFU, SKA2 / Fold change vs veh, SKA2 / RFU, AFF3 / Fold change vs veh, AFF3 / RFU, LMF1 / Fold change vs veh, LMF1 / RFU, IPO11 / Fold change vs veh, IPO11 / RFU, DFFB / Fold change vs veh, DFFB / RFU, FOXP1 / Fold change vs veh, FOXP1 / RFU, CARD8 / Fold change vs veh, CARD8 / RFU, STRN3 / Fold change vs veh, STRN3 / RFU, ADK / Fold change vs veh, ADK / RFU, RASSF2 / Fold change vs veh, RASSF2 / RFU, WIPF1 / Fold change vs veh, WIPF1 / RFU, LARP1B / Fold change vs veh, LARP1B / RFU, RASA1 / Fold change vs veh, RASA1 / RFU, RB1 / Fold change vs veh, RB1 / RFU, PPFIA1 / Fold change vs veh, PPFIA1 / RFU, MAT2A / Fold change vs veh, MAT2A / RFU, CCT5 / Fold change vs veh, CCT5 / RFU, WDR92 / Fold change vs veh, WDR92 / RFU, CUX1 / Fold change vs veh, CUX1 / RFU, TTC7A / Fold change vs veh, TTC7A / RFU, TMEM135 / Fold change vs veh, TMEM135 / RFU, DEPTOR / Fold change vs veh, DEPTOR / RFU, CPM / Fold change vs veh, CPM / RFU, DNAJB6 / Fold change vs veh, DNAJB6 / RFU, CACNA2D3 / Fold change vs veh, CACNA2D3 / RFU, DTX4 / Fold change vs veh, DTX4 / RFU, TFCP2 / Fold change vs veh, TFCP2 / RFU, GMCL1 /// GMCL1P1 / Fold change vs veh, GMCL1 /// GMCL1P1 / RFU, AEBP2 / Fold change vs veh, AEBP2 / RFU, SNHG1 /// SNORD22 /// SNORD25 /// SNORD26 /// SNORD27 /// SNORD28 /// SNORD29 /// SNORD31 / Fold change vs veh, SNHG1 /// SNORD22 /// SNORD25 /// SNORD26 /// SNORD27 /// SNORD28 /// SNORD29 /// SNORD31 / Fold change (Aza/veh), C12orf56 (ProbeSet 11735607_a_at) / Fold change (ACY-1035/veh), C12orf56 (ProbeSet 11735607_a_at) / Fold change (Aza/veh), FGFR1OP (ProbeSet 11751329_s_at) / Fold change (ACY-1035/veh), FGFR1OP (ProbeSet 11751329_s_at) / Fold change (Aza/veh), VPS36 (ProbeSet 11739960_a_at) / Fold change (ACY-1035/veh), VPS36 (ProbeSet 11739960_a_at) / RFU SYPL1 (11715823_x_at) / Fold change /veh SYPL1 (11715823_x_at) / RFU IGFBP7 (11715501_s_at) / Fold change /veh IGFBP7 (11715501_s_at) / RFU REEP3 (11722064_at) / Fold change /veh REEP3 (11722064_at) / RFU IGLL1 (11728026_x_at) / Fold change /veh IGLL1 (11728026_x_at): dose or concentration left out as unconfirmed
Details: ProbeSet 11754607_s_at; LIST B

## Nc1ncn([C@@H]2O[C@H](CO)[C@@H](O)[C@H]2O)c(=O)n1 [azacitidine]
  Fold change vs veh, HSP90B1 /// MIR3652: 0.90

From article PMC5218480 (PLoS ONE, 2017)
